In ChEMBL document CHEMBL1201862, “PubChem BioAssay data set” (2004):
The source made the active and inactive calls. Cut-off read from the data, not from the text of the source, for most assays here: actives have a measured EC50 and inactives only a lower limit.

Assays:
[1] = target: Luciferin 4-monooxygenase (Photinus pyralis, UniProt P08659); experiment: inhibition of purified Photinus pyralis luciferase – biochemical, luminescence, dose response (AID 1891)
[2] = Luminescence Cell-Based Dose Confirmation HTS to Identify Inhibitors of Platelet Dense Granule Release. [Related pubchem assays: 1663 (Primary HTS), 1678 (Summary of Project)]; type: functional
cells [3] = type: functional, cell-based
cells [4] = type: functional, cell-based; remark: listed apart in the source
[5] = target: T1, RNA-binding protein pos-1 (Caenorhabditis elegans, UniProt G5EF15); experiment: disruptors of C. elegans POS-1 RNA interaction – biochemical, fluorescence polarization, dose response (AID 1964);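 note: purified POS-1 fused to maltose binding protein made in E. coli; potency of compounds blocking POS-1 binding to fluorescent RNA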
T1 sequence (G5EF15 whole entry): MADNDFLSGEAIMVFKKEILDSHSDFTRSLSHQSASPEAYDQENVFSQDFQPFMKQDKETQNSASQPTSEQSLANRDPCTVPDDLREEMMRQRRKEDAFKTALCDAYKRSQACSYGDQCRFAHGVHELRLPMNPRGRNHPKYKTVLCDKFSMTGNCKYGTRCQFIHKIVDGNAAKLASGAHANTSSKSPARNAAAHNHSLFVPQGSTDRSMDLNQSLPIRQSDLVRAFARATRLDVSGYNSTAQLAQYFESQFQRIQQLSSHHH

[6] = target: T2, Zinc finger protein mex-5 (Caenorhabditis elegans, UniProt Q9XUB2); experiment: potency of MEX-5 RNA-binding blockers – biochemical, C. elegans, fluorescence polarization, dose response (AID 1960)
T2 sequence (Q9XUB2 whole entry): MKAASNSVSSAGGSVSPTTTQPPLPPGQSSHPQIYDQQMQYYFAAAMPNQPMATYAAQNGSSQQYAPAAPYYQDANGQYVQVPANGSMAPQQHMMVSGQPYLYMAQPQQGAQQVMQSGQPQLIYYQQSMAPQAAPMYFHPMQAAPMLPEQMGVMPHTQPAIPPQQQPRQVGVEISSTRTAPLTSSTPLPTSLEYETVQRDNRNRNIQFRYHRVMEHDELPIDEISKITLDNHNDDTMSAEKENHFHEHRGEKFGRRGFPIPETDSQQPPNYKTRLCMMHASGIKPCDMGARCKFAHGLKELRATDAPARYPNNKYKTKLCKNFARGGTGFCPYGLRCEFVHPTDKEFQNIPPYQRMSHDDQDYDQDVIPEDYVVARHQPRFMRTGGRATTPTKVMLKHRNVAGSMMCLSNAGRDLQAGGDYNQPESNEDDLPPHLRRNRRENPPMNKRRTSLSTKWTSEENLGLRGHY

[7] = target: T3, Polyadenylate-binding protein 1 (Homo sapiens, UniProt P11940); experiment: MLLE binding blockers, Cy5 peptide tracer – biochemical, fluorescence polarization, Cy5-PAM2 peptide, secondary, miRNA deadenylation inhibitor project, dose response (AID 602260); type: functional; details: read-out: IC50_Mean
[8] = target: T3, Polyadenylate-binding protein 1; experiment: MLLE domain peptide-binding blockers, IC50 – biochemical, fluorescence polarization, FITC-PAM2 peptide, dose response (AID 602259); type: functional; details: read-out: IC50_Mean
[9] = Trypanosoma cruzi growth suppression in host cells – NIH3T3 host cells, beta-gal luminescence, confirmation (AID 2044); type: functional, cell-based;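 note: intracellular parasites grown in NIH/3T3 mouse fibroblasts as host cells; luminescent beta-galactosidase reporter signal from transgenic T. cruzi replicating inside host cells; inhibitors lower the luminescence signal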
[10] = NIH3T3 cell viability loss – ATP luminescence, mouse fibroblasts, counter-screen, dose response (AID 2010); type: functional, cell-based;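 note: cells exposed to compound for about 90 hours before reading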
[11] = target: T4, Ubiquitin-conjugating enzyme E2 N (Homo sapiens, UniProt P61088); type: functional;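 note: Dose-response confirmation in a TR-FRET assay detecting UBC13-driven polyubiquitin chain formation, inhibition measured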
T4 sequence (P61088 whole entry): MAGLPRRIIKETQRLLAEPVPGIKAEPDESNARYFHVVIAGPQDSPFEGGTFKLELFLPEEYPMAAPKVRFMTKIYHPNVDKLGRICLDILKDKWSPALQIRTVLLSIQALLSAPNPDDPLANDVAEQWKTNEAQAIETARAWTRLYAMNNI

[12] = Luminescence Cell-Based Dose Retest to Confirm Inhibitors of Cancer Stem Cells. [Related pubchem assays (depositor defined):AID2717, AID2721]; type: functional; details: Homo sapiens
INS1 = experiment: INS-1E survival protection against cytokine death – cell-based, luminescence, retest, dose response (AID 449756); type: functional; details: Rattus norvegicus;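 note: cell death triggered by IL-1 beta plus TNF-alpha plus IFN-gamma mixture; protective hits raise ATP signal compared with cytokine alone wells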
[13] = target: T5, Heat shock factor protein 1 (Mus musculus, UniProt P38532); experiment: decrease of HSF1-responsive luciferase luminescence – cell-based, NIH3T3, dose retest, confirmation (AID 2382); type: functional;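 note: NIH3T3 fibroblasts with HSF1-driven luciferase reporter stressed by proteasome inhibitor MG132; luminescence from HSF1-driven luciferase expression after 8 hours of MG132 stress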
T5 sequence (P38532 whole entry): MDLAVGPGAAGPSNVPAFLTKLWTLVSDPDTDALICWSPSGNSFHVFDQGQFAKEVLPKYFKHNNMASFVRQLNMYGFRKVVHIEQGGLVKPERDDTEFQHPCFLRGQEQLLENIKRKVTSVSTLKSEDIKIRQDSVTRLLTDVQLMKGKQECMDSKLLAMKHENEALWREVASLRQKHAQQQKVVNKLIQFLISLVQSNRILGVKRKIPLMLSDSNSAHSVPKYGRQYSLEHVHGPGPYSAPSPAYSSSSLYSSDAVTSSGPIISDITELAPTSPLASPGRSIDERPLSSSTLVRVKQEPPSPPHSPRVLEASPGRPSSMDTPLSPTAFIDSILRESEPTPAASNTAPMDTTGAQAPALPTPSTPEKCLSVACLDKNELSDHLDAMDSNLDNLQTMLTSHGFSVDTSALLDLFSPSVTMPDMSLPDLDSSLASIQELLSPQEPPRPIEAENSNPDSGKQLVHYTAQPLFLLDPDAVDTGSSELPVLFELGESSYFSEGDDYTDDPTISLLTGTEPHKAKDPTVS

Paired box protein Pax-8 = Paired box protein Pax-8 (Homo sapiens, UniProt Q06710); experiment: PAX8 transcriptional activity inhibition in RMG-I – RMG-I cells, luciferase, cherry-pick, dose response (AID 687027); type: functional, cell-based;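 note: luciferase reporter driven by Pax8 target thyroperoxidase promoter measured by SteadyGlo luminescence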
Sequence of Paired box protein Pax-8 (Q06710 whole entry): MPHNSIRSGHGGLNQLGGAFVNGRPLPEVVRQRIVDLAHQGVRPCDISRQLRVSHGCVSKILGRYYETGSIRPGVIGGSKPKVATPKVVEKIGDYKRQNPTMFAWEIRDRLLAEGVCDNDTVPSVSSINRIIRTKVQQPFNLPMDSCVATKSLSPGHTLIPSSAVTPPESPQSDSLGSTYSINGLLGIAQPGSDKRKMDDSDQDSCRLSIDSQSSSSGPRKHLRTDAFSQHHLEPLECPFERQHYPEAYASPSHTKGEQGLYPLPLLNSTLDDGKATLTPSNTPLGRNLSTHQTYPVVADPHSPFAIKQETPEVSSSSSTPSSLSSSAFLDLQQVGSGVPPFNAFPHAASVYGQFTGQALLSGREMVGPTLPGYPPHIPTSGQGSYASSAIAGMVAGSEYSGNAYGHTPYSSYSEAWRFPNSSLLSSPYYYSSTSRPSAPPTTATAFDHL

T3 sequence (P11940 whole entry, the tested form may be a part): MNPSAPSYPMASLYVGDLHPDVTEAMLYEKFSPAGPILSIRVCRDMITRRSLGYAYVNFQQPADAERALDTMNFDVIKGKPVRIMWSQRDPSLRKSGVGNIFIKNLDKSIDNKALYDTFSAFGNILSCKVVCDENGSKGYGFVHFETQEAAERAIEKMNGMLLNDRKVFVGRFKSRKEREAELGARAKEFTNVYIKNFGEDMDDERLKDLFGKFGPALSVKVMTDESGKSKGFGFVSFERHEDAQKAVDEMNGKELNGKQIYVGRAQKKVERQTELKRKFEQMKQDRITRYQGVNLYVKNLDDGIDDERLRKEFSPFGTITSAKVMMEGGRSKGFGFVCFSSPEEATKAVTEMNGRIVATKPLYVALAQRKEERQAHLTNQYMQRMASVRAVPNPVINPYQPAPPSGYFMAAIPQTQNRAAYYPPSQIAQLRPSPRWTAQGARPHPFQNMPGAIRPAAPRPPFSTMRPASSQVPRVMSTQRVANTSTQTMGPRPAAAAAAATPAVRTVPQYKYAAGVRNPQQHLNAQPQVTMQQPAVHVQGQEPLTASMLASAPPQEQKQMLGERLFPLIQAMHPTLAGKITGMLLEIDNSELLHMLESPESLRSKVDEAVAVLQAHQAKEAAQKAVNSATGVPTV
Sequence of Luciferin 4-monooxygenase (P08659 whole entry): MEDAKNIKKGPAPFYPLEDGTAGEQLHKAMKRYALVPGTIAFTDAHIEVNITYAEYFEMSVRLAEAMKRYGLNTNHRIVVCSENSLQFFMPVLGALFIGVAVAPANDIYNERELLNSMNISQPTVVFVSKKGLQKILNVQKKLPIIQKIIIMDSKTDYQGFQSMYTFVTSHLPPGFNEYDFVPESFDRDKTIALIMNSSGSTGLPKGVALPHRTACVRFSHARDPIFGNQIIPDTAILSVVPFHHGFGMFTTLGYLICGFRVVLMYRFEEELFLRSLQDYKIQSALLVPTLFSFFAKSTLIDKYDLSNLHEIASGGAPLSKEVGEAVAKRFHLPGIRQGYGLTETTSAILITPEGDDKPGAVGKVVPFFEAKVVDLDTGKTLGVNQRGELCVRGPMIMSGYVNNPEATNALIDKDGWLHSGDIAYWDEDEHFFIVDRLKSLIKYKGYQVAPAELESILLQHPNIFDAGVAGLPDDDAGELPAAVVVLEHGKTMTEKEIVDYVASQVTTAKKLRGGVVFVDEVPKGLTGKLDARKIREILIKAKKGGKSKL

## CCCOC(=O)Nc1ccc(C(N)=O)cc1
[1]
  EC50: > 112 µM (not active)
[2]
  EC50: > 112 µM (not active)

## COc1ccccc1C(=O)Oc1ccccc1C(=O)Nc1ccccc1
Cells [3]
  EC50: > 350 µM (not active)
Cells [4]
  EC50: 16.1 µM (active)

## COc1ccc(N2C(=O)NC(=O)/C(=C/c3ccc4c(c3)Cc3ccccc3-4)C2=O)cc1
[5]
  EC50: > 300 µM (not active)
[6]
  EC50: > 300 µM (not active)

## Fc1ccc(F)c(C2=NN=C(NCC3CCCO3)SC2)c1 (centres undefined)
[7]
  IC50: > 66 µM (inactive)
[8]
  IC50: > 66 µM (inactive)

## Oc1[nH]c2ccc(Br)cc2c1N=NC(S)=NCC1CCCO1 (centres undefined)
[9]
  EC50: 2.17 µM (active)
[10]
  EC50: > 60 µM (not active)
[11]
  IC50: > 20 µM (inactive)

## Cc1cc(/C=C2\C(=O)NC(=O)N(C)C2=O)c(C)n1-c1ccc2c(c1)OCO2
[5]
  EC50: > 300 µM (not active)
[6]
  EC50: > 300 µM (not active)

## CCCCc1nc2sc3c(O)ncnc3c2c2c1CCCC2
[1]
  EC50: > 112 µM (not active)
[2]
  EC50: > 112 µM (not active)

## CCOc1c(C=C(C#N)C#N)c2ccccc2n1CC
[5]
  EC50: > 300 µM (not active)
[6]
  EC50: > 300 µM (not active)

## COc1cccc(N(C(=O)c2snc(C(N)=O)c2N)C(C(=O)NCC2CCCO2)c2c[nH]c3ccccc23)c1 (centres undefined)
[11]
  IC50: > 20 µM (inactive)

## COc1ccc(COCC(O)CN2CCC(CN3C(=O)c4cccc5cccc(c45)C3=O)CC2)cc1OC (centres undefined)
[11]
  IC50: > 20 µM (inactive)

## O=C(Nc1ccc(-c2csc(Nc3cccc(C(F)(F)F)c3)n2)cc1)c1cc([N+](=O)[O-])cc(C(F)(F)F)c1
[12]
  AC50: 1.4 µM (active)
INS1
  AC50: 7.89 µM (active)

## N=C(N)NC(=N)Nc1ccc(SC(F)(F)F)cc1
INS1
  AC50: 1.72 µM (active)

## O=C(Nc1cc[n+](-c2nc3ccccc3nc2[N-]S(=O)(=O)c2ccccc2)cc1)c1ccccc1Cl
[5]
  EC50: > 300 µM (not active)
[6]
  EC50: 32.7 µM (active)

## CC(=O)c1cccc(NC(=O)CSC(=O)c2ccccc2)c1
Cells [3]
  EC50: > 350 µM (not active)
Cells [4]
  EC50: > 350 µM (not active)

## Cn1c(=O)c2c(ncn2CC(=O)Nc2cccc(S(=O)(=O)Nc3ccccc3F)c2)n(C)c1=O
[13]
  EC50: > 195 µM (not active)
[7]
  IC50: > 66 µM (inactive)
[8]
  IC50: > 66 µM (inactive)

## O=C(Nc1ccccc1)NC1(C(=O)NCc2ccc3c(c2)OCO3)CCCCC1
[5]
  EC50: > 300 µM (not active)
[6]
  EC50: > 300 µM (not active)

## N=C(S)C(c1ccccc1)c1ncc(C(F)(F)F)cc1Cl (centres undefined)
[7]
  IC50: > 66 µM (inactive)
[8]
  IC50: > 66 µM (inactive)

## O=C(CSCc1ccco1)c1cccs1
[1]
  EC50: > 112 µM (not active)
[2]
  EC50: > 112 µM (not active)

## COc1cccc(/C=N/NC(=O)c2ccc(N3CCCC3=O)cc2)c1
Paired box protein Pax-8
  AC50: < 0.26 µM (active)

## C[C@@H]1CCCCO[C@H](CN(C)C(=O)Nc2ccc(C(F)(F)F)cc2)[C@@H](C)CN([C@@H](C)CO)C(=O)c2cc(NS(=O)(=O)c3cccs3)ccc2O1
Paired box protein Pax-8
  AC50: 6.63 µM (active)

## Cc1ccc(S(=O)(=O)Nc2ccc3c(c2)C(=O)N([C@@H](C)CO)C[C@H](C)[C@@H](CN(C)C(=O)Nc2ccc(C(F)(F)F)cc2)OCCCC[C@H](C)O3)cc1
Paired box protein Pax-8
  AC50: 3.14 µM (active)

## COc1ccccc1-c1ccc2c(c1)[C@H]1[C@H](CCN1S(=O)(=O)c1ccccc1F)[C@H](CO)N2
Paired box protein Pax-8
  AC50: 8.48 µM (active)
